Assay results: PMC9604400, “Synthesis, Anticancer and Antitubercular Properties of New Chalcones and Their Nitrogen-Containing Five-Membered Heterocyclic Hybrids Bearing Sulfonamide Moiety” (International Journal of Molecular Sciences, 2022)
Values after ≈ are worked out from the molar mass of the structure shown. Marks after values point to notes of the source that are not given here.

Assays:
Assay in all cases: microbe, parasite or virus in culture
[1] = test system: M. tuberculosis ATCC 35838; assay type: cell-based, Mycobacterium tuberculosis
[2] = test system: M. tuberculosis Haarlem; assay type: cell-based; settings: Mycobacterium tuberculosis
[3] = test system: M. tuberculosis Beijing; assay type: cell-based; settings: Mycobacterium tuberculosis
[4] = test system: M. tuberculosis Orphan strain; assay type: cell-based; settings: Mycobacterium tuberculosis
[5] = test system: M. tuberculosis ATCC 35822; assay type: cell-based; settings: Mycobacterium tuberculosis, ATCC35822
[6] = test system: M. tuberculosis LAM9 SIT 42; assay type: cell-based, Mycobacterium tuberculosis
[7] = Mycobacterium tuberculosis, ATCC35838, f. M. tuberculosis ATCC 35838 (rifampicin-resistant)
[8] = f. M. tuberculosis ATCC 35838 (rifampicin-resistant)
[9] = Mycobacterium tuberculosis, LAM9SIT42, c. M. tuberculosis LAM9 SIT 42

SMILES | MIC [1, 7] [µM] | MIC [1, 8] | MIC [2] [µM] | MIC [3] [µM] | MIC [4] [µM] | MIC [5] [µM] | MIC [6, 9] [µM] | MIC ([6]; c. M. tuberculosis LAM9 SIT 42)
COc1cc(OC)c(S(=O)(=O)NNC(=O)c2ccncc2)cc1C(=O)C=Cc1ccccc1 [Compound 20a, 5-Cinnamoyl-N’-isonicotinoyl-2,4-dimethoxybenzenesulfonohydrazide] | < 12 | <11 * µM | > 21 | < 11 | > 21 | > 21 | 21 (≈ 9.82 µg/mL) | 
COc1cc(OC)c(S(=O)(=O)NNC(=O)c2ccncc2)cc1C(=O)/C=C/c1ccc2c(c1)OCO2 [Compound 20f, (E)-5-(3-(Benzo[d][1,3]dioxol-5-yl)acryloyl)-N’-isonicotinoyl-2,4-dimethoxybenzenesulfonohydrazide] | < 12 | <10 * µM | > 20 | 20 (≈ 10.2 µg/mL) | > 20 | > 20 | 9.77 (≈ 5 µg/mL) | <10 µM
C[C@H]1COc2c(N3CCN(C)CC3)c(F)cc3c(=O)c(C(=O)O)cn1c23 [Levofloxacin, levofloxacin, reference compound] | 2.8 (≈ 1.01 µg/mL) |  | 2.8 (≈ 1.01 µg/mL) | 2.8 (≈ 1.01 µg/mL) | 2.8 (≈ 1.01 µg/mL) | 2.8 (≈ 1.01 µg/mL) | 2.8 (≈ 1.01 µg/mL) | 
COc1cc(OC)c(S(N)(=O)=O)cc1C(=O)C=Cc1ccccc1 [Compound 17a, 5-Cinnamoyl-2,4-dimethoxybenzenesulfonamide] | 29 (≈ 10.1 µg/mL) |  | > 29 | 29 (≈ 10.1 µg/mL) | 29 (≈ 10.1 µg/mL) | > 29 | > 29 | 
COc1cc(OC)c(S(=O)(=O)NNC(=O)c2ccncc2)cc1C(=O)/C=C/c1cc(OC)c(OC)c(OC)c1 [Compound 20e, (E)-N’-Isonicotinoyl-2,4-dimethoxy-5-(3-(3,4,5-trimethoxyphenyl)acryloyl)benzenesulfonohydrazide] | < 12 | <9.0 * µM | > 18 | < 9 | > 18 | > 18 | 8.97 (≈ 5 µg/mL) | <9.0 * µM
COc1ccc(/C=C/C(=O)c2ccc(OC)c(S(=O)(=O)NNC(=O)c3ccncc3)c2)cc1 [Compound 19d, (E)-N’-Isonicotinoyl-2-methoxy-5-(3-(4-methoxyphenyl)acryloyl)benzenesulfonohydrazide] | 21 (≈ 9.82 µg/mL) |  | > 21 | 21 (≈ 9.82 µg/mL) | 21 (≈ 9.82 µg/mL) | > 21 | 21 (≈ 9.82 µg/mL) | 
COc1ccc(/C=C/C(=O)c2cc(S(=O)(=O)NNC(=O)c3ccncc3)c(OC)cc2OC)cc1 [Compound 20d, (E)-N’-Isonicotinoyl-2,4-dimethoxy-5-(3-(4-methoxyphenyl)acryloyl)benzenesulfonohydrazide] | 20 (≈ 9.95 µg/mL) |  | > 20 | > 20 | > 20 | > 20 | > 20 | 
COc1cc(OC)c(S(N)(=O)=O)cc1C(=O)/C=C/c1ccc2c(c1)OCO2 [Compound 17f, (E)-5-(3-(Benzo[d][1,3]dioxol-5-yl)acryloyl)-2,4-dimethoxybenzenesulfonamide] | > 25 |  | > 2 | > 2 | > 2 | > 25 | > 2 | 
COc1ccc(C(=O)C=Cc2ccccc2)cc1S(=O)(=O)NNC(=O)c1ccncc1 [Compound 19a, 5-Cinnamoyl-N’-isonicotinoyl-2-methoxybenzenesulfonohydrazide] | < 12 | <11 µM | > 23 | 23 (≈ 10.1 µg/mL) | > 23 | > 23 | 23 (≈ 10.1 µg/mL) | 
